Test results from article PMC10777851, “SMT-738: a novel small-molecule inhibitor of bacterial lipoprotein transport targeting Enterobacteriaceae” (Antimicrobial Agents and Chemotherapy, 2023).
Values joined by “and” are separate entries in the source; they are usually repeats but may differ in a detail not shown here. Equal entries are not always repeated.

Columns and labels:
[1] = Cytotoxicity assay, positive control (cell line not stated); format: cell-based; details: human
E. coli = assay: MIC by broth microdilution (CLSI) against E. coli; format: cell-based, Escherichia coli
Method: (§1) MIC tests were performed by broth microdilution in-line with CLSI susceptibility testing standards ([20], [21]) either in-house or at IHMA (Europe and USA) or JMI Laboratories using cation-adjusted Mueller Hinton Broth.

K. pneumoniae = assay: MIC by broth microdilution (CLSI) against K. pneumoniae; format: cell-based, Klebsiella pneumoniae
Method: as §1

[2] = tested on: two respiratory isolates (carrying NDM-5 and TEM-OSBL) from Russia in 2019; details: both isolates, reported to be resistant to cefiderocol; cited from earlier work
[3] = 15 clinical MDR NDM isolates (NDM-1, NDM-4, NDM-5) from India (2018)
[4] = 100 MDR clinical isolates incl. ESBL and CRE

Compound: CSc1ccc2c(c1)N(CCC1CCCCN1C)c1ccccc1S2 (centres unmarked) [Thioridazine]
- IC50 at 24 h [1]: 22.1 µM and 8.19 µg/mL

Compound: Colistin [reference compound]
- MIC Range E. coli (NDM) (E. coli; [3]): 0.5 to 1 µg/mL
- MIC50 E. coli (E. coli; [4]): 0.5 µg/mL
- MIC90 E. coli (E. coli; [4]): 0.5 µg/mL
- MIC range E. coli (E. coli; [4]): 0.25 to 8 µg/mL
- MIC (E. coli; E. coli NCTC 13441 (UPEC, MDR, CTX-M-15 ESBL)): 0.16 µM and 0.18 µg/mL
- MIC Range K. pneumoniae (NDM) (K. pneumoniae; [3]): 1 to 32 µg/mL
- MIC50 K. pneumoniae (K. pneumoniae; [4]): 0.5 µg/mL
- MIC90 K. pneumoniae (K. pneumoniae; [4]): 16 µg/mL
- MIC (K. pneumoniae; K. pneumoniae NCTC 13438 (MDR, Class A KPC)): 1.56 µM and 1.80 µg/mL

Compound: CC(C)(O/N=C(\C(=O)N[C@@H]1C(=O)N2C(C(=O)[O-])=C(C[N+]3(CCNC(=O)c4ccc(O)c(O)c4Cl)CCCC3)CS[C@H]12)c1csc(N)n1)C(=O)O [cefiderocol]
- MIC [2]: > 64 µg/mL
